For assay [1], the system named is ERK1/2. The assay can be described thus: Phospho-/total ERK1/2 ELISA in EGF-stimulated T-47D cell smears. Particulars: T-47D cells, AG1478 0.5 uM, PD98059 20 uM. The class given is cell-based, human. Here is the method: T47D cells were maintained in Dulbecco's modified Eagle's medium (Life Technologies, Inc.) supplemented with 10% fetal calf serum and antibiotics (Life Technologies, Inc.). Prior to EGF (Sigma) stimulation, cells were starved for 24 h in serum-free medium.
Total cell lysates were obtained from either cells cultured in vitro or from tumor FNAB samples. Protein extracts were resolved by 4-15% SDS-PAGE and probed with Rabbit anti-EGFR, anti-phospbo-EGFR, anti-ERK1 and anti-phospho-ERK antibodies obtained from New England Biolabs (Beverly, Mass.). Immunoreactive proteins were visualized by enhanced chemiluminescence (Amersham International, United Kingdom). Total and phospho-ERK1/2 proteins were quantified by sandwich [LISA kits (BioSource International, Camarillo, Calif., USA) as described in the manufacturer's protocols. The reaction was read at 450 nm in an ELISA plate reader.
Western blot analysis of protein samples is a conventional method for phosphoprotein analysis. However, Western blot analysis is limited in throughput and quantitative precision, and also requires large sample amounts. […] Therefore, it was tested if quantitative ELISA assays can be applied to cytologic samples to increase the assay sensitivity to measure the expression levels and activation status of specific signaling pathways. […]

In assay [2] the test system is AKT. Nature of the assay: Ex vivo treatment of human breast cancer cells obtained by FNAB, AKT phosphorylation. To be noted: 3 hours, AG1478 0.5 uM, LY294002 10 uM. The class given is cell-based. Here is the method:
(§1) To obtain cancer cells cancer tumor tissue was sampled four times with a sterile 25G short needle and tumor samples were immediately transferred into 10 ml sterile prewarmed complete RPMI-1640 culture medium containing 10% fetal calf serum, penicillin (200 ug/ml) and streptomycin (200 ug/nil). After centrifugation and cells were resuspended and distributed in 6-well microculture plates and treated in duplicates with vehicle alone (DMSO control), an EGFR inhibitor AG1478 (0.5 uM) (Calbiochem, 658548), a MEK/ERK inhibitor PD98059 (20 uM) (Biosource International, PHZ 1164) or with a PI3K/AKT inhibitor LY294002 (10 uM) (Biosource International, PHZI 144) in a humidified 5% CO2 incubator at 37° C. for 3 hours.
(§2) Following treatment nonadherent and adherent cells (collected by scraping) were pooled together in a 1.5 ml microcentrifuge tube and centrifuged at 500×g for 5 min at 4° C. After washing with PBS, cells were lysed in 100 μl of ice-cold lysis buffer and therapy-induced changes n the expression and phosphorylation levels of AKT and ERK1/2 were detected by Western blot.

The subject of assay [3] is ERK1/2. Nature of the assay: Ex vivo treatment of human breast cancer cells obtained by FNAB, ERK1/2 phosphorylation. Particulars: 3 hours, AG1478 0.5 uM, PD98059 20 uM. The class given is cell-based. Here is the method:
as §1, §2

The test system of assay [4] is ERK1/2. The assay can be described thus: Panc 265 xenograft in vivo FNAB smears, ERK1/2 activity. More on the design: species or system human. To be noted: ZD1839 150 mg/Kg daily i.p., FNAB day 7. Here is the method: Animals were either untreated or treated with ZD1839: 150 mg/Kg daily or CCI-779: 20 mg/kg days 1-5 by intraperitoneal injection
(§3) To obtain cancer cells, each animal tumor was sampled as described above. After collection of tumor FNAB samples, xenograft animals were subsequently treated with ZD1839 or CCI-779 for 28 days and tumor volumes were determined as described above. At day 7 of therapy, AD/DQ slides were prepared from tumor FNAB samples to retrospectively correlate the results of in vivo and ex vivo chemosentitivty tests from the same xenograft animal.
(§4) After the treatment cells were collected, protein extracts were prepared and Western blot analysis was performed as described above. The ex vivo effect of ZD 1839 and CCI-779 on phosphorylation of ERK1/2 or S6 ribosomal proteins, respectively, was correlated with the in vivo data gathered from the FNAB smears prepared at day 7 of treatment.

Assay [5] has as its system HuCCT-1 tumors. The assay can be described thus: HuCCT-1 xenograft tumor growth. To be noted: single agents: gefitinib 150 mg/Kg i.p. days 1-5 and 8-12, CI-1040 150 mg/Kg twice a day oral days 1-14. The class given is in vivo, athymic (nu+/nu+) mice. Here is the method: (§5) Four to 6-week-old female athymic (nu+/nu+) mice were purchased from Harlan (Harlan Laboratories, Washington, D.C.). The research protocol was approved by the Johns Hopkins University Animal Care Committee and animals were maintained in accordance with the guidelines of the American Association of Laboratory Animal Care. […] Mice were monitored daily for signs of toxicity and were weighed three times per week. Tumor size was evaluated three times per week by caliper measurements using the following formula: tumor volume=[length×width^2]/2. Tumor growth inhibition was calculated by tumor volume of treated mice divided by tumor volume of control mice. Experiments were terminated on day 14.
To explore the feasibility of implementing this method in in vivo studies, mouse xenografts were next employed to test whether FNAB material obtained from tumor tissue can be utilized to monitor and predict therapy response in vivo. For this purpose HuCCT-1 cholangiocarcinoma cells were used to create a xenograft mouse model of human cholangiocarcinoma. […] Tumor volumes were measured and compared with tumors from animals that received drug vehicle alone.

Assay [6] has as its system ERK1/2. Nature of the assay: HuCCT-1 xenograft tumor FNAB phospho-/total ERK1/2 ELISA. The class given is in vivo, human. Here is the method:
as §5
(§6) Total cell lysates were obtained from either cells cultured in vitro or from tumor FNAB samples. […] Immunoreactive proteins were visualized by enhanced chemiluminescence (Amersham International, United Kingdom). Total and phospho-ERK1/2 proteins were quantified by sandwich [LISA kits (BioSource International, Camarillo, Calif., USA) as described in the manufacturer's protocols. The reaction was read at 450 nm in an ELISA plate reader.
Western blot analysis of protein samples is a conventional method for phosphoprotein analysis, but is limited in throughput, quantitative precision and requires large sample amounts. ELISA assays offer alternatives to Western blot with higher throughput and increased sensitivity. […] For this purpose the tumor FNAB samples, which have been analyzed on Western blot above (FIG. 16A), were used to assess the expression and phosphorylation of ERK1/2 proteins by the total and phospho-specific ERK1/2 ELISA assays, respectively.
The amounts of phosphorylated ERK1/2 were normalized for the total contents of these proteins in each sample group and therapy-mediated changes in their phosphorylation status were quantified.
In general terms: A xenograft is tissue or cells of one species grown in another, often human tumour cells in immunodeficient mice.

In assay [7] the test system is ERK1/2. Nature of the assay: HuCCT-1 xenograft tumor FNAB Western blot, ERK1/2 activity. The class given is in vivo, human. To be noted: in vivo. Here is the method: as §5
Fine needle aspirates were obtained with a 25G needle and 10 ml syringe, passing the needle through the tumor 10 times with application of 1-2 ml suction The aspirated material was expressed onto clear glass slides and smeared. All smears were allowed to air dry and then stained with Diff-Quik stain (Baxter Healthcare, Miami, Fla.). Five to ten AD/DQ-stained cytological smears were prepared from each tumor sample. The cellular composition of each aspirate was assessed by cytopathologists.
as §6
Next, whether FNAB samples obtained from tumor tissue at the early stage of therapy can be used to predict tumor response was examined. […] Expression and phosphorylation levels of ERK 1/2 were analyzed on Western blot by using extracts prepared from AD/DQ-stained FNAB samples.

Assay [8] relates to ERK1/2. Nature of the assay: Panc 265 xenograft FNAB cells treated ex vivo, ERK1/2 phosphorylation. The class given is cell-based, human. To be noted: Panc 265 FNAB cells; ZD1839 5 uM; 6 hours. Here is the method:
as §3
To determine viability of tumor cells obtained by FNAB, trypan blue dye exclusion assay was performed. The viability of tumor cells obtained by tumor FNAB from control animals was over 95%. Approximately 75,000 tumor cells were seeded into each well of a 6-well polypropylene microplate. Cells were treated in duplicates with vehicle (control) or with ZD1839 (5 uM) or CCI-779 (1 uM) in a humidified 5% CO2 incubator at 37° C. for different periods to determine the optimal treatment time to analyze drug effects.
as §4

Molecules are shown by their SMILES.

On to `COc1cc2ncnc(Nc3cccc(Cl)c3)c2cc1OC` [AG1478], for which, in assay [1], the “inhibition of EGF-induced ERK1/2 phosphorylation (phospho-ELISA normalized for total ERK1/2)” value was found to be 80%. The “phosphorylation of AKT” value in assay [2] is “reduced the phosphorylation of both ERK1/2 and AKT proteins”. In addition, the “phosphorylation of ERK1/2” value in assay [3] is “reduced the phosphorylation of both ERK1/2 and AKT proteins”.

For the compound `COc1cc2ncnc(Nc3ccc(F)c(Cl)c3)c2cc1OCCCN1CCOCC1` [gefitinib, Gefitinib], the “ERK1/2 activity in vivo” value in assay [4] is “failed to block ERK1/2 activity”. Also, in assay [5], the “decrease in tumor volume” value is 4%. Also, the “phosphorylation levels of ERK1/2 by phospho-ERK1/2 ELISA (raw data)” value in assay [6] (HuCCT-1 tumor FNAB samples of treated animals) is on record as “neither gefitinib nor CI-1040 treatment alone caused any significant change”. Moreover, in assay [6] (HuCCT-1 tumor FNAB, gefitinib alone), the “increase of ERK1/2 phosphorylation (normalized for total ERK1/2)” value came out at 17%. Further, the “ERK1/2 activity, serial FNAB sampling” value in assay [7] was “neither of these agents alone caused inhibition”. Further, in assay [8], the “ERK1/2 phosphorylation ex vivo” value is “failed to block ERK1/2 phosphorylation”.

The values above are taken from patent US20090325202A1, “Methods for Developing and Assessing Therapeutic Agents” (priority 2006, published 2009).
